{"source": "paper PMC5218480", "about": "(PLoS ONE, 2017)", "tested_on": "MV-4-11 cells", "test": "Gene expression microarray analysis (Affymetrix PrimeView) and GSEA", "assay_type": "cell-based, human", "design": "RFU PODN (11730768_x_at) / Fold change /veh PODN (11730768_x_at) / RFU LINC00158 (11744669_a_at) / Fold change /veh LINC00158 (11744669_a_at) / RFU DUSP10 (11751237_a_at) / Fold change /veh DUSP10 (11751237_a_at) / RFU ID3 (11757404_x_at) / Fold change /veh ID3 (11757404_x_at) / RFU PLEKHG5 (11737974_s_at) / Fold change /veh PLEKHG5 (11737974_s_at) / RFU LRRC4B (11730491_at) / Fold change /veh LRRC4B (11730491_at) / RFU GIMAP4 (11747438_a_at) / Fold change /veh GIMAP4 (11747438_a_at) / RFU KRT8 (11758183_x_at) / Fold change /veh KRT8 (11758183_x_at) / RFU CNN1 (11734310_a_at) / Fold change /veh CNN1 (11734310_a_at) / RFU VPS37D (11726825_at) / Fold change /veh VPS37D (11726825_at) / RFU C10orf10 (11716522_x_at) / Fold change /veh C10orf10 (11716522_x_at) / RFU KIR2DL2 /// KIR2DL4 /// KIR2DL5A /// KIR2DL5B /// KIR2DS1 /// KIR2DS2 /// KIR2DS3 /// KIR2DS4 /// KIR3DL3 /// KIR3DL3 /// KIR3DS1 (11738374_at) / Fold change /veh KIR2DL2 /// KIR2DL4 /// KIR2DL5A /// KIR2DL5B /// KIR2DS1 /// KIR2DS2 /// KIR2DS3 /// KIR2DS4 /// KIR3DL3 /// KIR3DL3 /// KIR3DS1 (11738374_at) / RFU C1QL1 (11718748_at) / Fold change /veh C1QL1 (11718748_at) / RFU TMPRSS4 (11747572_a_at) / Fold change /veh TMPRSS4 (11747572_a_at) / RFU HAMP (11756126_x_at) / Fold change /veh HAMP (11756126_x_at) / RFU RNFT2 (11725882_a_at) / Fold change /veh RNFT2 (11725882_a_at) / RFU NR4A2 (11747474_a_at) / Fold change /veh NR4A2 (11747474_a_at) / RFU ABCC12 (11746883_a_at) / Fold change /veh ABCC12 (11746883_a_at) / RFU TMEM136 (11760407_x_at) / Fold change /veh TMEM136 (11760407_x_at) / RFU CLDN22 /// WWC2 (11732394_at) / Fold change /veh CLDN22 /// WWC2 (11732394_at) / RFU HLA-DPB1 (11760878_x_at) / Fold change /veh HLA-DPB1 (11760878_x_at) / RFU SPINT1 (11716480_a_at) / Fold change /veh SPINT1 (11716480_a_at) / RFU GAP43 (11754022_s_at) / Fold change /veh GAP43 (11754022_s_at) / RFU A4GNT (11735810_at) / Fold change /veh A4GNT (11735810_at) / RFU PRB3 (11715151_x_at) / Fold change /veh PRB3 (11715151_x_at) / RFU TUBB4B (11761932_at) / Fold change /veh TUBB4B (11761932_at) / RFU CAPN14 (11732068_a_at) / Fold change /veh CAPN14 (11732068_a_at) / RFU TMCC2 (11721928_a_at) / Fold change /veh TMCC2 (11721928_a_at) / RFU IRGQ (11745062_a_at) / Fold change /veh IRGQ (11745062_a_at) / RFU FAM174B (11720279_a_at) / Fold change /veh FAM174B (11720279_a_at) / RFU TMPRSS4 (11748680_a_at) / Fold change /veh TMPRSS4 (11748680_a_at) / RFU FAM212B (11763350_a_at) / Fold change /veh FAM212B (11763350_a_at) / RFU PLEKHG5 (11743358_a_at) / Fold change /veh PLEKHG5 (11743358_a_at) / RFU ZSCAN30 (11745921_a_at) / Fold change /veh ZSCAN30 (11745921_a_at) / RFU CMKLR1 (11741424_a_at) / Fold change /veh CMKLR1 (11741424_a_at) / RFU LOC101060620 /// MAPK8IP1 (11723275_at) / Fold change /veh LOC101060620 /// MAPK8IP1 (11723275_at) / RFU SPTSSB (11747773_x_at) / Fold change /veh SPTSSB (11747773_x_at) / RFU PRSS12 (11739890_at) / Fold change /veh PRSS12 (11739890_at) / RFU BIN1 (11741810_x_at) / Fold change /veh BIN1 (11741810_x_at) / RFU WNT11 (11732464_a_at) / Fold change /veh WNT11 (11732464_a_at) / RFU C10orf10 (11716521_a_at) / Fold change /veh C10orf10 (11716521_a_at) / RFU C5orf56 (11738089_at) / Fold change /veh C5orf56 (11738089_at) / RFU CYB561 (11721691_x_at) / Fold change /veh CYB561 (11721691_x_at) / RFU ANKRD19P (11752326_a_at) / Fold change /veh ANKRD19P (11752326_a_at) / RFU OR2T12 /// OR2T33 /// OR2T8 (11738714_s_at) / Fold change /veh OR2T12 /// OR2T33 /// OR2T8 (11738714_s_at) / RFU VCAN (11748164_a_at) / Fold change /veh VCAN (11748164_a_at) / RFU JSRP1 (11732532_at) / Fold change /veh JSRP1 (11732532_at) / RFU KRTAP10-11 (11738290_x_at) / Fold change /veh KRTAP10-11 (11738290_x_at) / RFU MYO3A (11730013_a_at) / Fold change /veh MYO3A (11730013_a_at) / RFU EBF3 (11725865_a_at) / Fold change /veh EBF3 (11725865_a_at) / RFU CAMK2N1 (11719241_x_at) / Fold change /veh CAMK2N1 (11719241_x_at) / RFU C5orf56 (11738088_a_at) / Fold change /veh C5orf56 (11738088_a_at) / RFU OLFML3 (11715873_a_at) / Fold change /veh OLFML3 (11715873_a_at) / RFU LOC100653217 /// NTM (11731650_a_at) / Fold change /veh LOC100653217 /// NTM (11731650_a_at) / RFU MAPK11 (11762145_a_at) / Fold change /veh MAPK11 (11762145_a_at) / RFU FIZ1 (11724087_x_at) / Fold change /veh FIZ1 (11724087_x_at) / RFU OASL (11726364_x_at) / Fold change /veh OASL (11726364_x_at) / RFU SOX15 (11748057_x_at) / Fold change /veh SOX15 (11748057_x_at) / RFU CD79A (11719716_a_at) / Fold change /veh CD79A (11719716_a_at) / RFU HIST1H1D (11736915_at) / Fold change /veh HIST1H1D (11736915_at) / RFU CASKIN2 (11723855_a_at) / Fold change /veh CASKIN2 (11723855_a_at) / RFU LOC730098 (11760151_x_at) / Fold change /veh LOC730098 (11760151_x_at) / RFU OR4N2 (11742367_at) / Fold change /veh OR4N2 (11742367_at) / RFU PRRT2 (11749266_a_at) / Fold change /veh PRRT2 (11749266_a_at) / RFU SNX32 (11753110_a_at) / Fold change /veh SNX32 (11753110_a_at) / RFU CDHR5 (11726645_a_at) / Fold change /veh CDHR5 (11726645_a_at) / RFU RCAN1 (11760418_a_at) / Fold change /veh RCAN1 (11760418_a_at) / RFU FAM167A (11723789_a_at) / Fold change /veh FAM167A (11723789_a_at) / RFU FAM26E (11764081_at) / Fold change /veh FAM26E (11764081_at) / RFU ISYNA1 (11749810_s_at) / Fold change /veh ISYNA1 (11749810_s_at) / RFU ACY1 (11761880_at) / Fold change /veh ACY1 (11761880_at) / RFU 11764098_at / Fold change /veh 11764098_at / RFU SAMD14 (11745864_x_at) / Fold change /veh SAMD14 (11745864_x_at) / RFU NPB (11741838_a_at) / Fold change /veh NPB (11741838_a_at) / RFU TMPRSS6 (11731388_a_at) / Fold change /veh TMPRSS6 (11731388_a_at) / RFU KRTAP10-2 (11738614_at) / Fold change /veh KRTAP10-2 (11738614_at) / RFU ARHGAP8 /// PRR5-ARHGAP8 (11727945_x_at) / Fold change /veh ARHGAP8 /// PRR5-ARHGAP8 (11727945_x_at) / RFU KRTAP5-7 /// NADSYN1 (11734609_at) / Fold change /veh KRTAP5-7 /// NADSYN1 (11734609_at) / RFU RASL12 (11751679_a_at) / Fold change /veh RASL12 (11751679_a_at) / RFU CDKN2B (11736163_a_at) / Fold change /veh CDKN2B (11736163_a_at) / RFU PRF1 (11729649_at) / Fold change /veh PRF1 (11729649_at) / RFU, ZNF638 /// ZNF638-IT1 / Fold change vs veh, ZNF638 /// ZNF638-IT1 / RFU, PANK3 / Fold change vs veh, PANK3 / RFU, SH3YL1 / Fold change vs veh, SH3YL1 / RFU, ZEB2 / Fold change vs veh, ZEB2 / RFU, NRIP1 / Fold change vs veh, NRIP1 / RFU, PTTG1IP / Fold change vs veh, PTTG1IP / RFU, CAPN2 / Fold change vs veh, CAPN2 / RFU, MED14 / Fold change vs veh, MED14 / RFU, SNORA58 / Fold change vs veh, SNORA58 / RFU, C1orf63 / Fold change vs veh, C1orf63 / RFU, LRRFIP1 / Fold change vs veh, LRRFIP1 / RFU, NDUFAF7 / Fold change vs veh, NDUFAF7 / RFU, SLC12A2 / Fold change vs veh, SLC12A2 / RFU, IBTK / Fold change vs veh, IBTK / RFU, ESF1 / Fold change vs veh, ESF1 / Fold change vs veh, TMEM50B / RFU, TAOK1 / Fold change vs veh, TAOK1 / RFU, ACBD3 / Fold change vs veh, ACBD3 / RFU, TMA16 / Fold change vs veh, TMA16 / RFU, RWDD3 / Fold change vs veh, RWDD3 / RFU, BCAT1 / Fold change vs veh, BCAT1 / RFU, EDEM3 / Fold change vs veh, EDEM3 / RFU, TMEM33 / Fold change vs veh, TMEM33 / RFU, WDR75 / Fold change vs veh, WDR75 / RFU, AHCTF1 / Fold change vs veh, AHCTF1 / RFU, TFRC / Fold change vs veh, TFRC / RFU, ZDHHC17 / Fold change vs veh, ZDHHC17 / RFU, NOM1 / Fold change vs veh, NOM1 / RFU, ARL8B / Fold change vs veh, ARL8B / RFU, ZBTB11 / Fold change vs veh, ZBTB11 / RFU, TAMM41 / Fold change vs veh, TAMM41 / RFU, KIAA1704 /// LOC100996395 / Fold change vs veh, KIAA1704 /// LOC100996395 / RFU, ING1 / Fold change vs veh, ING1 / RFU, TRMT61B / Fold change vs veh, TRMT61B / RFU, FUBP3 / Fold change vs veh, FUBP3 / RFU, TP53 / Fold change vs veh, TP53 / RFU, TNKS2 / Fold change vs veh, TNKS2 / RFU, ZFP14 / Fold change vs veh, ZFP14 / RFU, ACTR2 / Fold change vs veh, ACTR2 / RFU, PPP3R1 / Fold change vs veh, PPP3R1 / RFU, PIK3R1 / Fold change vs veh, PIK3R1 / RFU, HNRNPA1 / Fold change vs veh, HNRNPA1 / RFU, RNF170 / Fold change vs veh, RNF170 / RFU, ZNF28 / Fold change vs veh, ZNF28 / RFU, RNGTT / Fold change vs veh, RNGTT / RFU, OGT / Fold change vs veh, OGT / RFU, BRD1 / Fold change vs veh, BRD1 / RFU, MARS / Fold change vs veh, MARS / RFU, ZNF655 / Fold change vs veh, ZNF655 / RFU, FAHD1 / Fold change vs veh, FAHD1 / RFU, BDP1 / Fold change vs veh, BDP1 / RFU, LRRCC1 / Fold change vs veh, LRRCC1 / RFU, ARID1A / Fold change vs veh, ARID1A / RFU, ZNF146 / Fold change vs veh, ZNF146 / RFU, ZNF330 / Fold change vs veh, ZNF330 / RFU, GPN3 / Fold change vs veh, GPN3 / RFU, C9orf123 / Fold change vs veh, C9orf123 / RFU, N4BP2L2 / Fold change vs veh, N4BP2L2 / RFU, ARFIP1 / Fold change vs veh, ARFIP1 / RFU, FAM179B / Fold change vs veh, FAM179B / RFU, BCL10 / Fold change vs veh, BCL10 / RFU, UHRF1BP1L / Fold change vs veh, UHRF1BP1L / RFU, BET1 / Fold change vs veh, BET1 / RFU, CNOT2 / Fold change vs veh, CNOT2 / RFU, ZNF268 / Fold change vs veh, ZNF268 / Fold change vs veh, ZNF507 / RFU, DGCR2 / Fold change vs veh, DGCR2 / RFU, WDSUB1 / Fold change vs veh, WDSUB1 / Fold change vs veh, HSP90B1 /// MIR3652 / RFU, ADSS / Fold change vs veh, ADSS / RFU, GK / Fold change vs veh, GK / RFU, ZNF148 / Fold change vs veh, ZNF148 / RFU, TAF9 / Fold change vs veh, TAF9 / RFU, SLC1A5 / Fold change vs veh, SLC1A5 / RFU, SLMO2 / Fold change vs veh, SLMO2 / RFU, ABCC4 / Fold change vs veh, ABCC4 / RFU, LOC101060439 /// RAP1B / Fold change vs veh, LOC101060439 /// RAP1B / RFU, RFX7 / Fold change vs veh, RFX7 / RFU, GTPBP10 / Fold change vs veh, GTPBP10 / RFU, CNEP1R1 / Fold change vs veh, CNEP1R1 / RFU, BIVM-ERCC5 /// ERCC5 / Fold change vs veh, BIVM-ERCC5 /// ERCC5 / RFU, ILF3 / Fold change vs veh, ILF3 / RFU 11762660_at / Fold change /veh 11762660_at / RFU VCAN (11757783_s_at) / Fold change /veh VCAN (11757783_s_at) / RFU DDX43 (11728927_at) / Fold change /veh DDX43 (11728927_at) / RFU KRT8 (11758188_x_at) / Fold change /veh KRT8 (11758188_x_at) / RFU NKD1 (11759106_at) / Fold change /veh NKD1 (11759106_at) / RFU SRD5A1 (11742802_a_at) / Fold change /veh SRD5A1 (11742802_a_at) / RFU TPSAB1 /// TPSB2 (11721975_s_at) / Fold change /veh TPSAB1 /// TPSB2 (11721975_s_at) / RFU GSTM3 (11746129_a_at) / Fold change /veh GSTM3 (11746129_a_at) / RFU IL23R (11737362_x_at) / Fold change /veh IL23R (11737362_x_at) / RFU TMEM51 (11727254_a_at) / Fold change /veh TMEM51 (11727254_a_at) / RFU PIWIL2 (11732686_x_at) / Fold change /veh PIWIL2 (11732686_x_at) / RFU ORM1 (11744905_x_at) / Fold change /veh ORM1 (11744905_x_at) / RFU CCDC152 (11743942_at) / Fold change /veh CCDC152 (11743942_at) / RFU ECM1 (11717891_a_at) / Fold change /veh ECM1 (11717891_a_at) / RFU IL23R (11748794_a_at) / Fold change /veh IL23R (11748794_a_at) / RFU TNFAIP8L3 (11732012_x_at) / Fold change /veh TNFAIP8L3 (11732012_x_at) / RFU MBOAT4 (11741988_at) / Fold change /veh MBOAT4 (11741988_at) / RFU 11764193_at / Fold change /veh 11764193_at / RFU TMEM53 (11763286_at) / Fold change /veh TMEM53 (11763286_at) / RFU MAGEB2 (11727129_at) / Fold change /veh MAGEB2 (11727129_at) / RFU TMEM200A (11744735_a_at) / Fold change /veh TMEM200A (11744735_a_at) / RFU CCDC152 (11751479_a_at) / Fold change /veh CCDC152 (11751479_a_at) / RFU FAM211A (11726209_a_at) / Fold change /veh FAM211A (11726209_a_at) / RFU RGS16 (11746705_a_at) / Fold change /veh RGS16 (11746705_a_at) / RFU VCAN (11755009_s_at) / Fold change /veh VCAN (11755009_s_at) / RFU RHOB (11743442_s_at) / Fold change /veh RHOB (11743442_s_at) / RFU RGS16 (11720943_a_at) / Fold change /veh RGS16 (11720943_a_at) / RFU RGS16 (11720944_at) / Fold change /veh RGS16 (11720944_at) / RFU, VPS4B / Fold change vs veh, VPS4B / RFU, CREB1 / Fold change vs veh, CREB1 / RFU, DNAJC13 / Fold change vs veh, DNAJC13 / RFU, GNAQ / Fold change vs veh, GNAQ / RFU, CDK5R1 / Fold change vs veh, CDK5R1 / RFU, ZRANB3 / Fold change vs veh, ZRANB3 / RFU, CUL4A / Fold change vs veh, CUL4A / RFU, CCNY / Fold change vs veh, CCNY / RFU, UFL1 / Fold change vs veh, UFL1 / RFU, COG3 / Fold change vs veh, COG3 / RFU, DIAPH2 / Fold change vs veh, DIAPH2 / RFU, SKA2 / Fold change vs veh, SKA2 / RFU, AFF3 / Fold change vs veh, AFF3 / RFU, LMF1 / Fold change vs veh, LMF1 / RFU, IPO11 / Fold change vs veh, IPO11 / RFU, DFFB / Fold change vs veh, DFFB / RFU, FOXP1 / Fold change vs veh, FOXP1 / RFU, CARD8 / Fold change vs veh, CARD8 / RFU, STRN3 / Fold change vs veh, STRN3 / RFU, ADK / Fold change vs veh, ADK / RFU, RASSF2 / Fold change vs veh, RASSF2 / RFU, WIPF1 / Fold change vs veh, WIPF1 / RFU, LARP1B / Fold change vs veh, LARP1B / RFU, RASA1 / Fold change vs veh, RASA1 / RFU, RB1 / Fold change vs veh, RB1 / RFU, PPFIA1 / Fold change vs veh, PPFIA1 / RFU, MAT2A / Fold change vs veh, MAT2A / RFU, CCT5 / Fold change vs veh, CCT5 / RFU, WDR92 / Fold change vs veh, WDR92 / RFU, CUX1 / Fold change vs veh, CUX1 / RFU, TTC7A / Fold change vs veh, TTC7A / RFU, TMEM135 / Fold change vs veh, TMEM135 / RFU, DEPTOR / Fold change vs veh, DEPTOR / RFU, CPM / Fold change vs veh, CPM / RFU, DNAJB6 / Fold change vs veh, DNAJB6 / RFU, CACNA2D3 / Fold change vs veh, CACNA2D3 / RFU, DTX4 / Fold change vs veh, DTX4 / RFU, TFCP2 / Fold change vs veh, TFCP2 / RFU, GMCL1 /// GMCL1P1 / Fold change vs veh, GMCL1 /// GMCL1P1 / RFU, AEBP2 / Fold change vs veh, AEBP2 / RFU, SNHG1 /// SNORD22 /// SNORD25 /// SNORD26 /// SNORD27 /// SNORD28 /// SNORD29 /// SNORD31 / Fold change vs veh, SNHG1 /// SNORD22 /// SNORD25 /// SNORD26 /// SNORD27 /// SNORD28 /// SNORD29 /// SNORD31 / Fold change (Aza/veh), C12orf56 (ProbeSet 11735607_a_at) / Fold change (ACY-1035/veh), C12orf56 (ProbeSet 11735607_a_at) / Fold change (Aza/veh), FGFR1OP (ProbeSet 11751329_s_at) / Fold change (ACY-1035/veh), FGFR1OP (ProbeSet 11751329_s_at) / Fold change (Aza/veh), VPS36 (ProbeSet 11739960_a_at) / Fold change (ACY-1035/veh), VPS36 (ProbeSet 11739960_a_at) / RFU SYPL1 (11715823_x_at) / Fold change /veh SYPL1 (11715823_x_at) / RFU IGFBP7 (11715501_s_at) / Fold change /veh IGFBP7 (11715501_s_at) / RFU REEP3 (11722064_at) / Fold change /veh REEP3 (11722064_at) / RFU IGLL1 (11728026_x_at) / Fold change /veh IGLL1 (11728026_x_at): dose or concentration left out as unconfirmed", "conditions": "MV-4-11 cells, 48 hours", "data": [{"compound": "Nc1ncn([C@@H]2O[C@H](CO)[C@@H](O)[C@H]2O)c(=O)n1", "note": "[azacitidine]", "values": [{"measurement": "Fold change /veh WNT11 (11732464_a_at)", "result": 0.83}]}]}
